The results in this text go back to patent US6787552B2, “PPAR delta activators” (Nippon Chemiphar Co., Ltd., priority 2000, dated 2004).

Series [1] has as its target T1, PPARδ (Homo sapiens, UniProt Q03181).
T1 construct: A chimeric receptor expression plasmid (GAL4-hPPARδ LBD); expressed in transfected cells; host or cells: CV-1 cells
T1 sequence (Q03181 211-439 limits assumed): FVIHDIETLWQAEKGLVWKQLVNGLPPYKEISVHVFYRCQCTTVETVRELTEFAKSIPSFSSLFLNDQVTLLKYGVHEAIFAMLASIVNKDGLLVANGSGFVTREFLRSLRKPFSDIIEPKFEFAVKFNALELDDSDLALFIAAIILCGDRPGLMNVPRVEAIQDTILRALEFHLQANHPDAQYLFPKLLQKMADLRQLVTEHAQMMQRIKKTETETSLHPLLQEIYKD
Kind of series: PPARδ transactivation activity (GAL4-hPPARδ LBD / UASx4-TK-LUC reporter in CV-1 cells). The class given is cell-based. The following applies: for Emax: CV-1, 40 h, in the manner as described in Example 9, Table 26, read-out: PPARδ (PPAR activating power). How it is done:
A chimeric receptor expression plasmid (GAL4-hPPARδ LBD), a reporter plasmid (UASx4-TK-LUC) and β-galactosidase (β-GAL) are transfected into CV-1 cells by utilizing a lipofection reagent DMRIE-C (Life Technologies).
(§1) (1) Measurement of PPARα,γ,δ Transactivation Activity
CV-1 was obtained from Tohoku University Aging Medical Laboratory, Medical Cell Collection Center.
(§2) CV-1 cells were seeded in 24 well culture plates at 2×10^5 cells per well, and cultured for 24 hours using 4%-fetal bovine serum(FBS)-added OPTI-MEM I Reduced Serum Medium (Life Technologies, 500 μL/well). Subsequently, the cells were washed with non serum-added OPTI-MEM. To the washed cells were added DNA-containing solution [the following components were contained in the one well solution (250 μl): 0.03 μg of GAL4-hPPARδ LBD, 0.25 μg of UASx4-TK-LUC, 0.35 μg of βGAL, and 2 μL of lipofection reagent, DMRIE-C (Life Technologies). These components were dissolved in OPTI-MEM and allowed to stand for 30 minutes at room temperature]. The cells were incubated for 5 hours at 37° C.
(§3) The cells were then incubated for 40 hours in 500 μL of fresh OPTI-MEM containing 4% FBS and the test compound (dissolved in 100% DMSO to reach a final concentration: 10^−4M or 10^−5M).
(§4) The culture medium was removed and the cells were washed with PBS twice. Cell lysates were produced using a solubilizing buffer (25 mM Tris-PO4 (pH 7.8), 15%v/v glycerol, 2% CHAPS, 1% Lecithin, 1% BSA, 4 mM EGTA (pH 8.0), 8 mM MgCl2, 1 mM DTT). A portion (20 μL) of the solution was transferred onto a 96-well plate. Subsequently, 100 μL of luciferase substrate solution (Piccagene: available from Nippon Gene Co., Ltd.) was added, and a luminous intensity per one sec. (luciferase activity) was measured by means of MLR-100 type Microluminoreader (available from Corona Electrics Co., Ltd.). Further, the activity caused by […] incorporation which was incorporated into the cells simultaneously with the incorporation of the luciferase gene was measured, for correcting variation of luciferase activity by the addition of the compound, utilizing the transfection efficiency of the incorporated gene. β-Galactosidase activity was measured by the following method: 50 μL of the solubilized sample was placed on another 96-well plate; 10 μL of ONPG (2-nitrophenyl-β-galactopyranoside) solution was added; incubation was carried out for 5 minutes at room temperature; 50 μL of a reaction stopping solution (1M sodium carbonate solution) was added; and the absorbance at 414 nm was measured.

Series [2] has as its target T2, PPARγ (Homo sapiens, UniProt P37231).
T2 construct: Receptor expression plasmid (GAL4-hPPARα, LBD GAL4-hPPARγ LBD, GAL4-hPPARδ LBD); expressed in transfected cells; host or cells: CV-1 cells
T2 sequence (P37231 238-503 limits assumed): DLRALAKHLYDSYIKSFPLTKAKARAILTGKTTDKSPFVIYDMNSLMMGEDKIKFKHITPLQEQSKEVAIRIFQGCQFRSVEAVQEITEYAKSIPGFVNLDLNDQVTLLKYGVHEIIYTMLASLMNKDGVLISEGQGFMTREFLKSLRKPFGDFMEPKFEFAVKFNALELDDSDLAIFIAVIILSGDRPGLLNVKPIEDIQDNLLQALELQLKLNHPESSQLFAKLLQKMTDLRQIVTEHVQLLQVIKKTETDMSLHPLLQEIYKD
Kind of series: PPARγ transactivation activity (GAL4-hPPARγ LBD / UASx4-TK-LUC reporter in CV-1 cells). In kind it is cell-based. The following applies: for Emax: CV-1, in the manner as described in Example 9, Table 26, read-out: PPARγ (PPAR activating power). Here is the method:
In the same manner, relative ligand activities to PPARδ and γ transactivation activitis are calculated (see the below-mentioned Example 9).
as §1
(§5) PPARα,γ,δ transactivation activity of each compound [Examples 1-6 and known PPARδ agonist (L-16504: Berger, J., et al. (1999), J. Biol. Chem., 274:6718-6725)] was measured in the manner described below.
(§6) CV-1 was obtained from Tohoku University Aging Medical Laboratory, Medical Cell Collection Center. All test compounds were dissolved in dimethylsulfoxide (DMSO) to give a test sample of 0.1% concentration.
(§7) Receptor expression plasmid (GAL4-hPPARα, LBD GAL4-hPPARγ LBD, GAL4-hPPARδ LBD), Reporter plasmid (UASx4-TK-LUC), and β-galactosidase expression plasmid (βGAL) similar to Kliewer, S. A., et al., ((1992) Nature, 358:771-774) were employed.
as §2, §3, §4

Series [3] concerns the target T3, PPARα (Homo sapiens, UniProt Q07869).
T3 construct: Receptor expression plasmid (GAL4-hPPARα, LBD GAL4-hPPARγ LBD, GAL4-hPPARδ LBD); expressed in transfected cells; host or cells: CV-1 cells
T3 sequence (Q07869 239-466 limits assumed): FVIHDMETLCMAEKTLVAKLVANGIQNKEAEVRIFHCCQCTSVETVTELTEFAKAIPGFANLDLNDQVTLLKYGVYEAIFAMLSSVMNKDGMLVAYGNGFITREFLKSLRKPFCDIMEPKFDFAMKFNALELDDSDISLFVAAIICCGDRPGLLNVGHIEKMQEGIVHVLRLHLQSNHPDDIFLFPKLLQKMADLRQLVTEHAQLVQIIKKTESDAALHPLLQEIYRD
Briefly: PPARα transactivation activity (GAL4-hPPARα LBD / UASx4-TK-LUC reporter in CV-1 cells). The class given is cell-based. The following applies: for Emax: CV-1, in the manner as described in Example 9, Table 26, read-out: PPARα (PPAR activating power). Here is the method:
as §1, §5, §6, §7, §2, §3, §4

[4] abbreviates: compound at 10^−5 M, CV-1 cells, Table 25.

Take `CC(C)c1oc(-c2ccc(Cl)cc2Cl)nc1CCC(=O)c1cccc(OC(C)(C)C(=O)O)c1` [Example 8-2, 2-[3-[3-[2-(2,4-Dichlorophenyl)-5-isopropyl-4-oxazolyl]propionyl]phenyloxy)-2-methylpropionic acid]: the melting point – broadly, the temperature of the solid-liquid transition – lay in the range of 115 to 120 °C.
For the compound `CC(C)c1oc(-c2ccc(Cl)cc2Cl)nc1CCC(=O)c1ccc(OC(C)(C)C(=O)O)cc1` [Example 7-4, 2-[4-[3-[2-(2,4-Dichlorophenyl)-5-isopropyl-4-oxazolyl]propionyl]phenyloxy]-2-methylpropionic acid], the melting point fell in the range of 100 to 105 °C. In addition, in series [1], the Emax turned out to be 86 ± 10%. Besides, the “activity to PPARδ relative to activity to PPARα and γ (selectivity)” value in series [1] (CV-1 cells, GAL4-hPPAR LBD reporter, relative activities vs control reagents) is reported as “higher”. Moreover, in series [2], the Emax was determined as 2%. The Emax in series [3] turned out to be 1%.
Take `CC(C)c1oc(-c2ccc(-c3ccccc3)cc2)nc1CCC(=O)c1ccc(OC(C)(C)C(=O)O)cc1` [Example 7-8, 2-[4-[3-[2-(4-Biphenylyl)-5-isopropyl-4-oxazolyl]-propionyl]phenyloxy]-2-methylpropionic acid]: the Emax in series [1] was determined as 58%; in series [2], 26%; in series [3], 1%.
`CC(C)c1oc(-c2cc3ccccc3o2)nc1CCC(=O)c1ccc(OC(C)(C)C(=O)O)cc1` [Example 7-7, 2-[4-[3-[2-(2-Benzofuranyl)-5-isopropyl-4-oxazolyl]propionyl]phenyloxy]-2-methylpropionic acid] showed a melting point of 135 to 139 °C. Also, the Emax in series [1] amounted to 65 ± 2%. For the same compound, the Emax in series [2] came to 9%. Moreover, in series [3], the Emax worked out at 1%.
`CC(C)c1oc(-c2ccccc2Cl)nc1CCC(O)c1ccc(OC(C)(C)C(=O)O)cc1` (stereo not shown) [Example 4, 2-[4-[3-[2-(2-Chlorophenyl)-5-isopropyl-4-oxazolyl]-1-hydroxypropyl]phenyloxy]-2-methylpropionic acid]: in series [1] (setting [4]), the “PPARδ transactivation activity: a relative value (control = 100%)” value was 23%. The “PPARγ transactivation activity: a relative value (control = 100%)” value in series [2] (setting [4]) was 26%. Besides, in series [3] (setting [4]), the “PPARα transactivation activity: a relative value (control = 100%)” value was 35%.
For `CC(C)c1oc(-c2ccc(Cl)cc2Cl)nc1CC=Cc1ccc(OC(C)(C)C(=O)O)cc1` [Example 7-10, 2-[4-[3-[2-(2,4-Dichlorophenyl)-5-isopropyl-4-oxazolyl]-1-propenyl]phenyloxy]-2-methylpropionic acid], the Emax came to 70% in series [1], 1% in series [2] and 3% in series [3].
